Test results taken from the CheMixHub ionic liquid set.
± gives the uncertainty stated by the source.

Assay: xn = mol fraction of the nth substance listed
Conditions: 100 kPa

CC[n+]1ccn(C)c1.O=S(=O)([O-])O + Cc1ncc(C[n+]2csc(CCO)c2C)c(N)n1.Cl.[Cl-] + O
viscosity [mPa·s]
Conditions | 293.15 K | 298.15 K | 303.15 K | 308.15 K | 313.15 K | 318.15 K
x2 = 0, x1 = 0.0009002 | 1.05 ± 0.1 | 0.94 ± 0.1 | 0.84 ± 0.1 | 0.76 ± 0.1 | 0.69 ± 0.1 | 0.65 ± 0.1
x2 = 0, x1 = 0.001799 | 1.07 ± 0.1 | 0.95 ± 0.1 | 0.85 ± 0.1 | 0.77 ± 0.1 | 0.7 ± 0.1 | 0.64 ± 0.1
x2 = 0, x1 = 0.002696 | 1.08 ± 0.1 | 0.96 ± 0.1 | 0.86 ± 0.1 | 0.78 ± 0.1 | 0.71 ± 0.1 | 0.64 ± 0.1
x2 = 0.0002717, x1 = 0.0008999 | 1.06 ± 0.1 | 0.95 ± 0.1 | 0.85 ± 0.1 | 0.77 ± 0.1 | 0.7 ± 0.1 | 0.66 ± 0.1
x2 = 0.0002739, x1 = 0.001798 | 1.08 ± 0.1 | 0.96 ± 0.1 | 0.86 ± 0.1 | 0.78 ± 0.1 | 0.71 ± 0.1 | 0.65 ± 0.1
x2 = 0.0002783, x1 = 0.002695 | 1.09 ± 0.1 | 0.97 ± 0.1 | 0.87 ± 0.1 | 0.79 ± 0.1 | 0.72 ± 0.1 | 0.65 ± 0.1
x2 = 0.0005451, x1 = 0.0008997 | 1.07 ± 0.1 | 0.96 ± 0.1 | 0.85 ± 0.1 | 0.78 ± 0.1 | 0.71 ± 0.1 | 0.67 ± 0.1
x2 = 0.0005496, x1 = 0.001798 | 1.09 ± 0.1 | 0.97 ± 0.1 | 0.87 ± 0.1 | 0.79 ± 0.1 | 0.72 ± 0.1 | 0.66 ± 0.1
x2 = 0.0005575, x1 = 0.002694 | 1.1 ± 0.1 | 0.98 ± 0.1 | 0.88 ± 0.1 | 0.8 ± 0.1 | 0.73 ± 0.1 | 0.66 ± 0.1
x2 = 0.0008249, x1 = 0.001797 | 1.1 ± 0.1 | 0.98 ± 0.1 | 0.88 ± 0.1 | 0.8 ± 0.1 | 0.73 ± 0.1 | 0.67 ± 0.1
x2 = 0.0008327, x1 = 0.002693 | 1.11 ± 0.1 | 0.99 ± 0.1 | 0.89 ± 0.1 | 0.81 ± 0.1 | 0.73 ± 0.1 | 0.67 ± 0.1
x2 = 0.0008356, x1 = 0.0008994 | 1.08 ± 0.1 | 0.97 ± 0.1 | 0.86 ± 0.1 | 0.79 ± 0.1 | 0.72 ± 0.1 | 0.68 ± 0.1
x2 = 0.00109, x1 = 0.0008992 | 1.09 ± 0.1 | 0.98 ± 0.1 | 0.87 ± 0.1 | 0.8 ± 0.1 | 0.73 ± 0.1 | 0.68 ± 0.1
x2 = 0.001102, x1 = 0.001797 | 1.11 ± 0.1 | 0.98 ± 0.1 | 0.89 ± 0.1 | 0.81 ± 0.1 | 0.74 ± 0.1 | 0.68 ± 0.1
x2 = 0.001112, x1 = 0.002693 | 1.12 ± 0.1 | 1 ± 0.1 | 0.9 ± 0.1 | 0.81 ± 0.1 | 0.74 ± 0.1 | 0.68 ± 0.1
x2 = 0.001362, x1 = 0.000899 | 1.1 ± 0.1 | 0.99 ± 0.1 | 0.88 ± 0.1 | 0.8 ± 0.1 | 0.74 ± 0.1 | 0.69 ± 0.1
x2 = 0.001376, x1 = 0.001796 | 1.11 ± 0.1 | 0.99 ± 0.1 | 0.9 ± 0.1 | 0.82 ± 0.1 | 0.75 ± 0.1 | 0.69 ± 0.1
x2 = 0.001389, x1 = 0.002692 | 1.13 ± 0.1 | 1.01 ± 0.1 | 0.91 ± 0.1 | 0.82 ± 0.1 | 0.75 ± 0.1 | 0.69 ± 0.1
x2 = 0.001634, x1 = 0.0008987 | 1.1 ± 0.1 | 1 ± 0.1 | 0.89 ± 0.11 | 0.81 ± 0.1 | 0.75 ± 0.1 | 0.7 ± 0.11
x2 = 0.001651, x1 = 0.001796 | 1.12 ± 0.1 | 1 ± 0.1 | 0.91 ± 0.1 | 0.83 ± 0.1 | 0.76 ± 0.1 | 0.7 ± 0.1
x2 = 0.001665, x1 = 0.002691 | 1.14 ± 0.1 | 1.02 ± 0.1 | 0.92 ± 0.1 | 0.83 ± 0.1 | 0.76 ± 0.1 | 0.7 ± 0.1
x2 = 0.001907, x1 = 0.0008985 | 1.11 ± 0.1 | 1.01 ± 0.1 | 0.9 ± 0.1 | 0.82 ± 0.1 | 0.76 ± 0.1 | 0.71 ± 0.1
x2 = 0.001926, x1 = 0.001795 | 1.13 ± 0.1 | 1.01 ± 0.1 | 0.92 ± 0.1 | 0.84 ± 0.1 | 0.77 ± 0.1 | 0.71 ± 0.1
x2 = 0.001943, x1 = 0.00269 | 1.15 ± 0.1 | 1.03 ± 0.1 | 0.93 ± 0.1 | 0.84 ± 0.1 | 0.77 ± 0.1 | 0.71 ± 0.1
